Results as given in patent US5567716A, “Trans and cis traumatic acid salts having cicatrizant activity associated to bacteriostatic, antiviral, antibiotic or antifungal activity” (priority 1992, dated 1996).

How the values were obtained:
[1] = test system: B.subtilis ATCC 6633; assay: Evaluation of bacteriostatic minimal concentration (BMC); format: cell-based; conditions: Table 2.b)5; test concentrations given in μg/ml
Procedure: (§1) 1. Culture Medium: Tryprone Soy Broth (TBS) - Biogenetics
(§2) Microbic standard strains from American Type Culture Collection (ATCC) were used, chosen among aerobic Gram positive and negative as follows:
(§3) The broths culture of the different species are prepared growing the standard strain (kept in Tryptic Soy Agar (TSA) slent at 5° C.) in Tryptone Soy Broth (TSB) for 12 hours at 37° C. 10 ml are then taken up from each culture, centrifugated for 3 times at 3500 PM washing each time the sediment using 10 ml of sterile saline solution. The sediment is resuspended in the saline solution until obtainment of a turbidity corresponding to the Mc Farland standard solution (the suspension title must be […] UFC/ml).
(§4) The compounds, dissolved as stock solution, were added to test tubes containing 5 ml TBS in order to obtain the desired Final concentration 10000; 5000; 1000; 200; 40; 2; 0.4; 0.05 μg/ml (culture medium maximal dilution=1/10).
(§5) 50 μl of bacterial suspension are added to the tube containing the compounds to be tested and incubated at 37° C.: the densitometric determination is made in comparison with Mc Farland standard solution 24 and 48 hours later.
(§6) After the incubation time the suspensions ape gently agitated; 50 μl of each suspension are inoculated in tubes containing […] of TSB and incubated at 37° C.; the densitometric determination is made 48 hours later.
(§7) BMC is defined by comparison between the two densitometric evaluation.

[2] = test system: C.albicans ATCC 10231; assay: as above; format: cell-based; conditions: Table 2.b)6; test concentrations given in μg/ml
Procedure: as §1, §2, §3, §4, §5, §6, §7

[3] = test system: Ps.aeruginosa ATCC 35422; assay: as above; format: cell-based; conditions: Table 2.b)1; test concentrations given in μg/ml
Procedure: as §1, §2, §3, §4, §5, §6, §7

[4] = test system: St.aureus ATCC 65380; assay: as above; format: cell-based; conditions: Table 2.b)2; test concentrations given in μg/ml
Procedure: as §1, §2, §3, §4, §5, §6, §7

[5] = test system: St.epidermidis ATCC 14990; assay: as above; format: cell-based; conditions: Table 2.b)4; test concentrations given in μg/ml
Procedure: as §1, §2, §3, §4, §5, §6, §7

[6] = test system: E.coli ATCC 35218; assay: microbe, parasite or virus in culture; format: cell-based; conditions: Table 2.b)3; test concentrations given in μg/ml
Procedure: as §1, §2, §3, §4, §5, §6, §7

[7] = test system: fibroblast cells L929; assay: Cell growth of fibroblast L929 culture, crystal violet colorimetry (1.2); conditions: in words
Procedure: Mice fibroblast cells L929, clone derived from connective tissue, are suspended in Eagle's MEM with penicillin (100U/ml)--streptomycin (0.1 mg/ml), seeded in culture dishes (10000cells/dish) and cultured overnight. After 24 hours the culture medium was decantated and the tested compounds are added. The cellular density is measured after 4 (t0) and 24 (t1) hours of incubation at 37° C. in 5% CO2 air by colorimetry using crystal violet (exposure for 15 minutes, room temperature; absorbance 570 nm).
The cells number is measured at 4 (t0) and 24 (t1) hours from the seeding. The cell growth is evaluated at t1/t0 rate (%).

[8] = test system: E. Coli ATCC.35218; assay: Antibacterial activity, diffusion method in agar-germs (2.a); format: cell-based
Procedure: (§8) In a Tryprone Soy Agar diffusion medium ATCC (American Type Culture Collection) standard bacterial strains are inoculated, preparing a final solution of 10^6 cfu/g (colony forming unities) of the following strains:
(§9) Every plate contains 20 ml of a medium where 2 equidistant wells having a standard diameter are Formed and in each of these wells […] of the above described bacterial solution are inoculated. 2 plates are prepared for every couple of compounds to be tested at different concentrations, and For every strain, and each of these plates is compared with a white (sterile demineralized water inoculum). After the inoculum, the plates are placed in the refrigerator to favour diffusion and temporaneously blocking bacterial growth.
(§10) The compounds hexadecyltrimethylammonium traumatate and benzyldimethylhexadecylammonium traumatare respectively versus hexadecyl trimethylammonium bromide and benzyldimethylhexadecylammonium chloride are solubilized in demineralized water to Form solutions at the concentrations: 0.1; 0.5; and 1%.
(§11) The antibacterial effect is evaluated by measuring bacterial diffusion halo around the well vs white (halo absence).

[9] = test system: PS Maltophila ATCC.13637; assay: as above; format: cell-based
Procedure: as §8, §9, §10, §11

[10] = test system: Pseudomonas Aeruginosa ATCC.35422; assay: as above; format: cell-based
Procedure: as §8, §9, §10, §11

[11] = test system: Aspergillus Niger ATCC 16404; assay: as above; format: cell-based; design: unit not given here
Procedure: as §8, §9, §10, §11

[12] = test system: Candida Albicans ATCC.10231; assay: as above; format: cell-based; design: unit not given here
Procedure: as §8, §9, §10, §11

[13] = test system: PS Cepacia ATCC.25416; assay: as above; format: cell-based; design: unit not given here
Procedure: as §8, §9, §10, §11

[14] = test system: Stafilococcus Aureus ATCC.65380; assay: as above; format: cell-based; design: unit not given here
Procedure: as §8, §9, §10, §11

[15] = test system: Stafilococcus Epidermidis ATCC.14990; assay: as above; format: cell-based; design: unit not given here
Procedure: as §8, §9, §10, §11

[16] = test system: Streptococcus Fecalis ATCC.291212; assay: as above; format: cell-based; design: unit not given here
Procedure: as §8, §9, §10, §11

[17] = test system: standard bacterial strains; assay: Antibacterial activity, diffusion method in agar-germs, all strains (2.a); format: cell-based; conditions: versus hexadecyltrimethylammonium bromide and benzyldimethylhexadecylammonium chloride; in words
Procedure: as §8, §9, §10, §11

[18] = Physical chemical characteristics: solubility in water and organic solvents

gentamycin trans-traumatate [Gentamycin Traumatate]
MINIMAL BACTERIAL CONCENTRATION [1]: 40.00
MINIMAL BACTERIAL CONCENTRATION [2]: > 10,000
MINIMAL BACTERIAL CONCENTRATION [3]: 1,000.00
MINIMAL BACTERIAL CONCENTRATION [4]: 1,000.00
MINIMAL BACTERIAL CONCENTRATION [5]: 200.00
MINIMAL BACTERIAL CONCENTRATION [6]: 200.00
cell growth effect compared to traumatic acid [7]: higher than traumatic acid effect
promotion of cell growth (proliferation) ([7]; benzethonium > gentamycin salt): capable to promote cell growth (proliferation) according to dose-effect relationship

benzylmethylhexadecylammonium trans-traumatate
bacterial diffusion halo ([8]; sol. 0.1%): n.h.
bacterial diffusion halo ([8]; sol. 0.5%): n.h.
bacterial diffusion halo ([8]; sol. 1%): 13
bacterial diffusion halo ([9]; sol. 0.1%): n.h.
bacterial diffusion halo ([9]; sol. 0.5%): n.h.
bacterial diffusion halo ([9]; sol. 1%): 15
bacterial diffusion halo ([10]; sol. 0.1%): n.h.
bacterial diffusion halo ([10]; sol. 0.5%): 12
bacterial diffusion halo ([10]; sol. 1%): 14
bacterial diffusion halo ([11]; sol. 0.1%): 12
bacterial diffusion halo ([11]; sol. 0.5%): 16
bacterial diffusion halo ([11]; sol. 1%): 19
bacterial diffusion halo ([12]; sol. 0.1%): 13
bacterial diffusion halo ([12]; sol. 0.5%): 15
bacterial diffusion halo ([12]; sol. 1%): 16
bacterial diffusion halo ([13]; sol. 0.1%): 12
bacterial diffusion halo ([13]; sol. 0.5%): 15
bacterial diffusion halo ([13]; sol. 1%): 15
bacterial diffusion halo ([14]; sol. 0.1%): 17
bacterial diffusion halo ([14]; sol. 0.5%): 22
bacterial diffusion halo ([14]; sol. 1%): 22
bacterial diffusion halo ([15]; sol. 0.1%): 15
bacterial diffusion halo ([15]; sol. 0.5%): 17
bacterial diffusion halo ([15]; sol. 1%): 19
bacterial diffusion halo ([16]; sol. 0.1%): 12
bacterial diffusion halo ([16]; sol. 0.5%): 14
bacterial diffusion halo ([16]; sol. 1%): 15
antibacterial and bacteriostatic activity profile [17]: antibacterial and bacteriostatic activity profile comparable to that of the comparison products
MINIMAL BACTERIAL CONCENTRATION [1]: 1,000.00
MINIMAL BACTERIAL CONCENTRATION [2]: 2.00
MINIMAL BACTERIAL CONCENTRATION [3]: 10,000.00
MINIMAL BACTERIAL CONCENTRATION [4]: 1,000.00
MINIMAL BACTERIAL CONCENTRATION [5]: 2.00
MINIMAL BACTERIAL CONCENTRATION [6]: 200.00
organic solvent solubility ([18]; in ethanol): > 20 mg/mL
solubility in water ([18]; water): > 10 mg/mL
